PMC8143339, “PK/PD Modeling of the PDE7 Inhibitor—GRMS-55 in a Mouse Model of Autoimmune Hepatitis” (Pharmaceutics, 2021)
Entries after “also recorded” stand apart in the source; their conditions may differ. Where two headings read alike, the source gives them in different places.

What was measured:
[1] = test system: PDE7A; conditions: reported in previous publication; read-out: IC50 for PDE7A inhibition; cited from earlier work
[2] = Pharmacokinetic study after IP administration; assay type: in vivo, female BALB/c mice; conditions: for half-life: ip
Protocol: Pharmacokinetics of GRMS-55 was evaluated in female BALB/c mice following intraperitoneal (IP) administration of this compound at doses of 50 and 100 mg·kg^−1. The investigated compound was dissolved in a vehicle composed of DMSO, PEG 400, and water for injection at a ratio of 25:25:50 (v/v/v). Animals were exsanguinated at 5, 15, 30, 60, 90, and 120 min following GRMS-55 administration. Blood samples were collected, allowed to clot for 30 min at room temperature, and centrifuged at 3000× g for 10 min. The serum was separated and stored at −20 °C until analysis.
To analyze GRMS-55 concentrations in the mouse serum, we used the previously developed HPLC method with UV detection. A detailed description of this method was published in a supplementary material of our previous publication. Briefly, 10 μL of 4-(8-((furan-2-ylmethyl)amino)-1,3-dimethyl-2,6-dioxo-1,2,3,6-tetrahydro-7H-purin-7-yl)-N′-(2-hydroxybenzylidene)butanehydrazide solution as internal standard (IS) was added to tubes containing 100 μL of the analyzed serum. The samples were mixed with 20 μL of 1 M hydrochloric acid solution, subjected to extraction with 1 mL of dichloromethane, and centrifuged at 10,000× g for 8 min. The organic layers were transferred to new tubes and evaporated with nitrogen at 37 °C. Dry residues were then dissolved in 100 μL of mobile phase and transferred to glass vial inserts for HPLC analysis (LaChrom Elite, Merck-Hitachi, Darmstadt, Germany). The separation was achieved on a LiChrospher 100 RP-18 (250 × 4 mm) column (particle size of 5 μm) protected with a LiChroCART guard column (Merck, Darmstadt, Germany) using the mobile phase composed of 20 mM solution of KH2PO4 (pH = 4.5) and acetonitrile at a ratio of 45:55 (v/v) pumped at a flow rate of 1 mL min^−1 at ambient temperature. The analytical wavelength was set to 209 nm. In these conditions, the retention time of GRMS-55 was 9.2 min and for IS it was 5.3 min. The analytical method was validated according to FDA Bioanalytical Method Validation, Guidance for Industry. Specificity of the method was estimated by analyzing six different independent samples of the blank serum. […] The calibration curve was constructed by plotting the ratios of the peak area of the studied compound to IS vs. concentrations of GRMS-55 and it was linear in the tested concentration range, i.e., 0.050–20 mg·L^−1. Within runs and between runs, precision and accuracy met the acceptance criteria, i.e., they were less than 15% expressed as coefficients of variation % (CVs%) or ±15% of the nominal concentrations, respectively, for all quality control levels. Recoveries of the analyzed compound and IS assessed by comparing the peak areas of extracted samples with corresponding extracts of blanks spiked with the analyte post-extraction ranged from 94% to 98%. The lower limit of quantification was 0.05 mg·L^−1. GRMS-55 in serum samples was stable at room temperature for at least 12 h and at –20 °C for a period of 12 months. The stock solutions were stable for over one month at 4 °C.
Initially, non-compartmental analysis of the concentration–time data of GRMS-55 was performed. Subsequently, pharmacokinetic modeling was conducted. Different compartmental models with linear and non-linear elimination were tested, and the final pharmacokinetic model with the best goodness-of-fit criteria was chosen. Several measures of goodness-of-fit were evaluated, i.e., value of the objective function, Akaike Information Criterion, Bayesian Information Criterion, visual inspection of fitting, and a precision of parameter estimates expressed as CVs%. Pharmacokinetic model parameters were estimated using the ADAPT 5 software (BMSR, Los Angeles, CA, USA) based on the weighted least squares algorithm. […]

[3] = test system: TNF-α production; parameters: method as in PMID 31899535; conditions: rat lipopolysaccharide-induced endotoxemia, PK/PD model; cited from earlier work
[4] = Assessment of emetogenicity: α2-adrenoceptor agonist-induced anesthesia (xylazine/ketamine); assay type: in vivo, male CD-1 mice; conditions: doses up to 100 mg/kg IP
Protocol: Male CD-1 mice were anesthetized with xylazine (10 mg·kg^−1) and ketamine (80 mg·kg^−1) in saline for injection-administered IP. Fifteen minutes later, the animals were IP-administered with GRMS-55 at doses of 50 or 100 mg·kg^−1, rolipram at a dose of 10 mg·kg^−1, or the corresponding volume of vehicle and subsequently placed in a dorsal recumbency position. The return of the righting reflex (i.e., when the animal turned itself spontaneously to a prone position) was used as an endpoint to measure the duration of anesthesia. In this test, shortening of the sleeping time is a behavioral correlate of emesis.

[5] = Stability in serum samples and stock solutions (bioanalytical validation); assay type: physicochemical, mouse
Protocol: To analyze GRMS-55 concentrations in the mouse serum, we used the previously developed HPLC method with UV detection. A detailed description of this method was published in a supplementary material of our previous publication. Briefly, 10 μL of 4-(8-((furan-2-ylmethyl)amino)-1,3-dimethyl-2,6-dioxo-1,2,3,6-tetrahydro-7H-purin-7-yl)-N′-(2-hydroxybenzylidene)butanehydrazide solution as internal standard (IS) was added to tubes containing 100 μL of the analyzed serum. The samples were mixed with 20 μL of 1 M hydrochloric acid solution, subjected to extraction with 1 mL of dichloromethane, and centrifuged at 10,000× g for 8 min. The organic layers were transferred to new tubes and evaporated with nitrogen at 37 °C. Dry residues were then dissolved in 100 μL of mobile phase and transferred to glass vial inserts for HPLC analysis (LaChrom Elite, Merck-Hitachi, Darmstadt, Germany). […] Within runs and between runs, precision and accuracy met the acceptance criteria, i.e., they were less than 15% expressed as coefficients of variation % (CVs%) or ±15% of the nominal concentrations, respectively, for all quality control levels. Recoveries of the analyzed compound and IS assessed by comparing the peak areas of extracted samples with corresponding extracts of blanks spiked with the analyte post-extraction ranged from 94% to 98%. The lower limit of quantification was 0.05 mg·L^−1. […]

[6] = test system: PDE7A; assay: in vitro PDE7A inhibition assay; assay type: biochemical; conditions: ratio of IC50 values
[7] = parameters: method as in PMID 31899535; conditions: cited from earlier work
[8] = test system: PDE3A; parameters: method as in PMID 31899535; conditions: cited from earlier work
[9] = test system: PDE4B; conditions: reported in previous publication; read-out: IC50 for PDE4B inhibition; cited from earlier work
[10] = test system: paw edema in collagen-induced arthritis; parameters: method as in PMID 31899535; conditions: rats with collagen-induced arthritis, PK/PD arthritis progression model; cited from earlier work
[11] = test system: PDE1B; parameters: method as in PMID 31899535; conditions: cited from earlier work
[12] = test system: PDE4D; parameters: method as in PMID 31899535; conditions: in vitro assay at concentrations up to 200 µM; cited from earlier work
[13] = test system: PDE4B; assay: in vitro PDE4B inhibition assay; assay type: biochemical; conditions: ratio of IC50 values

- ka, absorption rate constant ([2]; IP 50 or 100 mg/kg, one-compartment model): 1.49 h⁻¹
- half-life ([2]; female, BALB/c, mouse, serum, mice, IP, read-out: terminal half-life): ~30 min
- half-life ([2]; female, BALB/c, mouse, serum, non-compartmental approach, IP, read-out: serum terminal half-life (converted)): ~30 min
- half-life ([2]; female, BALB/c, mouse, serum, read-out: absorption half-life (ln2/ka)): 27.9 min
- half-life ([2]; female, BALB/c, mouse, serum, read-out: elimination half-life (ln2/ke)): 9.1 min
- Vd/F ([2]; female, BALB/c, mouse, serum, IP 50 or 100 mg/kg, one-compartment model, read-out: Vd/F, apparent volume of distribution): 1.81 L/kg
- k el ([2]; female, BALB/c, mouse, serum, IP 50 or 100 mg/kg, one-compartment model, read-out: ke, elimination rate constant (converted)): 0.00127 s⁻¹
- effect on sleeping time [4]: did not affect
- stability in serum samples, time stable ([5]; room temperature): at least 12 h
- stability in serum samples, time stable ([5]; –20 °C): 12 months
Compound: Cn1c(=O)c2c(nc(NCCc3ccccc3)n2CCCC(=O)NN=Cc2ccccc2O)n(C)c1=O [GRMS-55, 4-(1,3-dimethyl-2,6-dioxo-8-(phenethylamino)-1,2,3,6-tetrahydro-7H-purin-7-yl)-N′-(2-hydroxybenzylidene)butanehydrazide]
- IC50 [1]: 7.3 µM
- IC50, suppression of TNF-α production [3]: 1.06 µg/mL
- times weaker PDE7A inhibitor than BRL-50481 [6]: 3.5
- apparent volume of distribution at steady state ([7]; male Wistar rats): ~7 L/kg
- half-life ([7]; male and female rats): approximately 20 min
- potency of PDE3A suppression [8]: moderate
- IC50 [9]: 26.9 µM
- IC50, decrease of paw edema [10]: 0.26 µg/mL
- potency of PDE1B suppression [11]: high
- PDE4D inhibition [12]: not found to inhibit; also recorded: not active
- times weaker inhibitor of PDE4B than rolipram [13]: 24.5
